Measurements reported in US8871753B2, “Macrocyclic compounds and their use as kinase inhibitors” (Incyte Corporation, priority 2008, dated 2014).
Where a name gives a salt, the structure may show the parent alone.

Legend:
Assay type in all cases: biochemical
[1] = target: T1, human JAK3 (a.a. 781-1124) (Homo sapiens, UniProt P52333); test: In vitro JAK kinase assay (HTRF, phosphorylation of a biotinylated peptide), JAK3; settings: method AA1 (3 μM ATP) or AA2 (1000 μM ATP), not stated per value
T1 construct: JAK3 (a.a. 781-1124); His tag (N); made in house; host or cells: insect cells (baculovirus)
Summary of the method: (§1)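 Kinase activity was measured as phosphorylation of a biotinylated peptide, with ATP at 90 μM for JAK1, 30 μM for JAK2 and 3 μM for JAK3. Reactions ran 1 hr at room temperature, were stopped with EDTA plus SA-APC and Eu-Py20, and were read by HTRF after 40 minutes of antibody binding.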

[2] = target: TYK2 (Homo sapiens, UniProt P29597); test: TYK2 kinase inhibition (Table A1)
[3] = target: T2, human JAK1 (a.a. 837-1142) (Homo sapiens, UniProt P23458); test: In vitro JAK kinase assay (HTRF, phosphorylation of a biotinylated peptide), JAK1; settings: method AA1 (90 μM ATP) or AA2 (1000 μM ATP), not stated per value; read-out: JAK1 IC50
T2 construct: human JAK1 (a.a. 837-1142); His tag (N); made in house; host or cells: insect cells (baculovirus)
Summary of the method: as §1

[4] = target: T3, human JAK2 (a.a. 828-1132) (Homo sapiens, UniProt O60674); test: In vitro JAK kinase assay (HTRF, phosphorylation of a biotinylated peptide), JAK2; settings: method AA1 (30 μM ATP) or AA2 (1000 μM ATP), not stated per value
T3 construct: JAK2 (a.a. 828-1132); His tag (N); made in house; host or cells: insect cells (baculovirus)
Summary of the method: as §1

[5] = target: T4, Recombinant Human Anaplastic Lymphoma Kinase (Homo sapiens, UniProt Q9UM73); test: ALK HTRF kinase assay; settings: compound at 500 nM or 1 mM; 90 μM ATP
T4 construct: purchased Invitrogen, Carlsbad, Calif
Summary of the method: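 Readout was HTRF between a Eu-W1024 anti-phosphotyrosine antibody and streptavidin-APC bound to biotinylated peptide phosphorylated by recombinant human ALK. IC50 values came from a four-parameter logistic fit.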

T2 sequence (P23458 849-1154): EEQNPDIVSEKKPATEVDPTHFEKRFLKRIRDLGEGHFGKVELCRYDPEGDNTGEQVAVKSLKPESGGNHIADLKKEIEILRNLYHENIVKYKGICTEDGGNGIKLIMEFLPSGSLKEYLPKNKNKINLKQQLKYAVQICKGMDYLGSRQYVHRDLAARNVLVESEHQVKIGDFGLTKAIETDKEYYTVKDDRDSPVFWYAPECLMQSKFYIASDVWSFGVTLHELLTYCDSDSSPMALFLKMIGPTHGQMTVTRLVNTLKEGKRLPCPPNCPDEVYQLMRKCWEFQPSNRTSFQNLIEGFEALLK
T3 sequence (O60674 828-1132): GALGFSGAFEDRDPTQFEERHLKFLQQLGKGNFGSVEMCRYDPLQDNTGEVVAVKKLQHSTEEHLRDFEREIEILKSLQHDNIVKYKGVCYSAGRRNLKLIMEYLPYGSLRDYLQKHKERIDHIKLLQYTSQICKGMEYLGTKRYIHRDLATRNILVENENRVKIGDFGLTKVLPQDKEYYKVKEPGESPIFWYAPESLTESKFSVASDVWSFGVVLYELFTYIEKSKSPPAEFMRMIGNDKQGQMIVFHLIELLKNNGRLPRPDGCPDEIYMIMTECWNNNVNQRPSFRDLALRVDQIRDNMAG
T1 sequence (P52333 781-1124): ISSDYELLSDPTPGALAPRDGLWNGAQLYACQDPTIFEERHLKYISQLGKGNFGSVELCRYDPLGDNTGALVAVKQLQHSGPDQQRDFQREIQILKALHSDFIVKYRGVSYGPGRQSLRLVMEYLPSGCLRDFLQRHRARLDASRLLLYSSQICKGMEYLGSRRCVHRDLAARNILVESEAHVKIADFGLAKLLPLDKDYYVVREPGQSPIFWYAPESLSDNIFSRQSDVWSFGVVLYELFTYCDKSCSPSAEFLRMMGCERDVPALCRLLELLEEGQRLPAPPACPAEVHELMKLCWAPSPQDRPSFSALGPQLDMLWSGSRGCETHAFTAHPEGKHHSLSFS
Chain of TYK2 (P29597 whole entry): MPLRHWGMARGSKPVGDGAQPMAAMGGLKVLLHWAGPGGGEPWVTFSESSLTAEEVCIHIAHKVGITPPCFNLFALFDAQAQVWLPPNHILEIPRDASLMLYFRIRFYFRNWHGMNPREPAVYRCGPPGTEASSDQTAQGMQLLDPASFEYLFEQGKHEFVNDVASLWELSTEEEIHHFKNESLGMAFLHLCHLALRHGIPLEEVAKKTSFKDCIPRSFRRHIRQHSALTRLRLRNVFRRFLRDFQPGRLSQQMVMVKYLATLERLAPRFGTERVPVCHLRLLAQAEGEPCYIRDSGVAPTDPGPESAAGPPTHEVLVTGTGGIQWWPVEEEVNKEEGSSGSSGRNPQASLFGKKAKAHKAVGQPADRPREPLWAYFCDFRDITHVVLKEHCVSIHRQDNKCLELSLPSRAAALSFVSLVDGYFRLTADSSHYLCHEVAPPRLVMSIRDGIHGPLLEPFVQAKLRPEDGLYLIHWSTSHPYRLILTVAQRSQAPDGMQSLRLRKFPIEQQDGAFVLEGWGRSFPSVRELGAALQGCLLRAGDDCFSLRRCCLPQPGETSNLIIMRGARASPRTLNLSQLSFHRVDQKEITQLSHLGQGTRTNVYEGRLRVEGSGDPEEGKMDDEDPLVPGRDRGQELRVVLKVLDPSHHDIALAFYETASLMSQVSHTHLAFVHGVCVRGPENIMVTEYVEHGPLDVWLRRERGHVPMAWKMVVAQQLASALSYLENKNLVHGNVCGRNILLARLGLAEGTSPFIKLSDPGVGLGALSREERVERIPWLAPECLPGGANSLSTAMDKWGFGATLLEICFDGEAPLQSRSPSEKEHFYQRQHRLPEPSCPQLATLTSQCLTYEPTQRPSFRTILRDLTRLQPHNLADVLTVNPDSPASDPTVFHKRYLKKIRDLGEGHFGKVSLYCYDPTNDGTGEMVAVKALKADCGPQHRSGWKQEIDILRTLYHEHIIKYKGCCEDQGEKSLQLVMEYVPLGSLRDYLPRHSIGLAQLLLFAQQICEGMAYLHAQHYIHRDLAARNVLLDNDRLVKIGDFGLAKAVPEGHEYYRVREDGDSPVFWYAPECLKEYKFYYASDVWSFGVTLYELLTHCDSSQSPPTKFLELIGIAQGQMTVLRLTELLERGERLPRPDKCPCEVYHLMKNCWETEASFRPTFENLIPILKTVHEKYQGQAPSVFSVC
T4 sequence (Q9UM73 19-1620): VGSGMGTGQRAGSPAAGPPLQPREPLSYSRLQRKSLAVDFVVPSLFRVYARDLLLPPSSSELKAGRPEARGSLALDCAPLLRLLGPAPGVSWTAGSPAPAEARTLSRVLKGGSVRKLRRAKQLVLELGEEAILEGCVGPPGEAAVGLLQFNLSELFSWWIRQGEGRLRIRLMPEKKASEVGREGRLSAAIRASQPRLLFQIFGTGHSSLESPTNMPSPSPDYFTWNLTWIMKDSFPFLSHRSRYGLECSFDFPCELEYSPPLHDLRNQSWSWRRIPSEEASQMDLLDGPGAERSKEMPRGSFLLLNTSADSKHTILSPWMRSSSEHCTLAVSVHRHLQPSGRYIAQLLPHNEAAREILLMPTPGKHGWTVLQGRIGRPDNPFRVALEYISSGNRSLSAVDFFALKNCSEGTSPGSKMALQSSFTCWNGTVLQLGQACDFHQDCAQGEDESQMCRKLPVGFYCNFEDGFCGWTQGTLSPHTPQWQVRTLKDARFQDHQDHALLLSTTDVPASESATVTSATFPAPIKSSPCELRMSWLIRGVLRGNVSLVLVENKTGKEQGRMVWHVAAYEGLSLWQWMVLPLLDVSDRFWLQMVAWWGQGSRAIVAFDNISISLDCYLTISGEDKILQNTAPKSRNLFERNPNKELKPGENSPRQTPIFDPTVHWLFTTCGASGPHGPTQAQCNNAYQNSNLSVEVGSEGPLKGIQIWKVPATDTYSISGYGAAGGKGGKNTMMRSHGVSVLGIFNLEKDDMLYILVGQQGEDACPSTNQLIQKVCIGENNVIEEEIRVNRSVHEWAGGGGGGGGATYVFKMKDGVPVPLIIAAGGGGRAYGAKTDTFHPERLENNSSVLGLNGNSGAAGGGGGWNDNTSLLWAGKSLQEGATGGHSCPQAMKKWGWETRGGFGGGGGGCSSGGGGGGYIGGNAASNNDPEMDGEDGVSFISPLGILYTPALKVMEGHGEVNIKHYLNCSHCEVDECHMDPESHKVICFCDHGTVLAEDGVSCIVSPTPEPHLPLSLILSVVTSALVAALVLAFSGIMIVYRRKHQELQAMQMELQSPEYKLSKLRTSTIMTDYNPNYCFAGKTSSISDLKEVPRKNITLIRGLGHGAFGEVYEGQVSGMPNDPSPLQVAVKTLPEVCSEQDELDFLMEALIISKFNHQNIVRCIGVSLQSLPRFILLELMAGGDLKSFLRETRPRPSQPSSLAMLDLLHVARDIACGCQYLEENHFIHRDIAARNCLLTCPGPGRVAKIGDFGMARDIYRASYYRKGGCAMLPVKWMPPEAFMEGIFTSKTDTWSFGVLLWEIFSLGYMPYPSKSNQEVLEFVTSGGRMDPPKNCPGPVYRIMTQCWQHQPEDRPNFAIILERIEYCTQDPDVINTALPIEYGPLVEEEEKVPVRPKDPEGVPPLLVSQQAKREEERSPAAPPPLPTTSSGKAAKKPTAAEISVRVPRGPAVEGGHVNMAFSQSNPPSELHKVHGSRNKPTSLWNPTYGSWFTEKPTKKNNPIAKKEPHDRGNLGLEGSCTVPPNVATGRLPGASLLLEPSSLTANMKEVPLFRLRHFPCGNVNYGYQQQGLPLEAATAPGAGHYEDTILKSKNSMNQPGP

| IC50 [1] [nM] | IC50 [2] [nM] | IC50 [3] [nM] | IC50 [4] [nM] | ALK % of inhibition at a concentration of 500 nM or 1 mM [5] [%] | Compound |
| --- | --- | --- | --- | --- | --- |
| 17 | 13 | 7.3 | 3.7 | 31 | CC(C)S(=O)(=O)N1CCC(CC(=O)Nc2ccc3cc2CCc2cccc(c2)Nc2ncc(Cl)c(n2)N3)CC1 [Example A82, N-[6-Chloro-2,4,8,22-tetraazatetracyclo[14.3.1.1(3,7).1(9,13)]docosa-1(20),3(22),4,6,9(21),10,12,16,18-nonaen-12-yl]-2-[1-(isopropylsulfonyl)piperidin-4-yl]acetamide trifluoroacetate] |
| 12 | 2.5 | 1.9 | 2.5 | 41 | CCS(=O)(=O)N1CCC(CC(=O)Nc2ccc3cc2CCc2cccc(c2)Nc2ncc(Cl)c(n2)N3)CC1 [Example A83, N-[6-Chloro-2,4,8,22-tetraazatetracyclo[14.3.1.1(3,7).1(9,13)]docosa-1(20),3(22),4,6,9(21),10,12,16,18-nonaen-12-yl]-2-[1-(ethylsulfonyl)piperidin-4-yl]acetamide trifluoroacetate] |
| 49 | 16 | 24 | 9 | 31 | CC(C)NC(=O)N1CCC(CC(=O)Nc2ccc3cc2CCc2cccc(c2)Nc2ncc(Cl)c(n2)N3)CC1 [Example A84, 4-(2-{[6-Chloro-2,4,8,22-tetraazatetracyclo[14.3.1.1(3,7).1(9,13)]docosa-1(20),3(22),4,6,9(21),10,12,16,18-nonaen-12-yl]amino}-2-oxoethyl)-N-isopropylpiperidine-1-carboxamide trifluoroacetate] |
| 147 | 33 | 49 | 13 | 19 | CC(C)(C)NC(=O)N1CCC(CC(=O)Nc2ccc3cc2CCc2cccc(c2)Nc2ncc(Cl)c(n2)N3)CC1 [Example A85, N-(tert-Butyl)-4-(2-{[6-chloro-2,4,8,22-tetraazatetracyclo[14.3.1.1(3,7).1(9,13)]docosa-1(20),3(22),4,6,9(21),10,12,16,18-nonaen-12-yl]amino}-2-oxoethyl)piperidine-1-carboxamide trifluoroacetate] |
| 29 | 1.5 | 0.8 | 2.2 | 32 | Cc1cc(C(=O)N2CCC(CC(=O)Nc3ccc4cc3CCc3cccc(c3)Nc3ncc(Cl)c(n3)N4)CC2)no1 [Example A86, N-[6-Chloro-2,4,8,22-tetraazatetracyclo[14.3.1.1(3,7).1(9,13)]docosa-1(20),3(22),4,6,9(21),10,12,16,18-nonaen-12-yl]-2-{1-[(5-methylisoxazol-3-yl)carbonyl]piperidin-4-yl}acetamide trifluoroacetate] |
| 56 | 12 | 14 | 9.8 | 31 | O=C(CC1CCN(C(=O)c2cnccn2)CC1)Nc1ccc2cc1CCc1cccc(c1)Nc1ncc(Cl)c(n1)N2 [Example A87, N-[6-Chloro-2,4,8,22-tetraazatetracyclo[14.3.1.1(3,7).1(9,13)]docosa-1(20),3(22),4,6,9(21),10,12,16,18-nonaen-12-yl]-2-[1-(pyrazin-2-ylcarbonyl)piperidin-4-yl]acetamide bis(trifluoroacetate)] |
| 86 | 47 | 14 | 24 | 22 | CC(C)(C)C(=O)N1CCC(CC(=O)Nc2ccc3cc2CCc2cccc(c2)Nc2ncc(Cl)c(n2)N3)CC1 [Example A88, N-[6-Chloro-2,4,8,22-tetraazatetracyclo[14.3.1.1(3,7).1(9,13)]docosa-1(20),3(22),4,6,9(21),10,12,16,18-nonaen-12-yl]-2-[1-(2,2-dimethylpropanoyl)piperidin-4-yl]acetamide trifluoroacetate] |
| 57 | 3 | 6.5 | 3.7 | 29 | CC(C)C(=O)N1CCC(CC(=O)Nc2ccc3cc2CCc2cccc(c2)Nc2ncc(Cl)c(n2)N3)CC1 [Example A89, N-[6-Chloro-2,4,8,22-tetraazatetracyclo[14.3.1.1(3,7).1(9,13)]docosa-1(20),3(22),4,6,9(21),10,12,16,18-nonaen-12-yl]-2-(1-isobutyrylpiperidin-4-yl)acetamide trifluoroacetate] |
| 68 | 4.9 | 4.9 | 5.4 | 30 | CCC(=O)N1CCC(CC(=O)Nc2ccc3cc2CCc2cccc(c2)Nc2ncc(Cl)c(n2)N3)CC1 [Example A90, N-[6-Chloro-2,4,8,22-tetraazatetracyclo[14.3.1.1(3,7).1(9,13)]docosa-1(20), 3(22),4,6,9(21),10,12,16,18-nonaen-12-yl]-2-(1-propionylpiperidin-4-yl)acetamide trifluoroacetate] |
| 44 | 14 | 3.7 | 5.9 | 29 | CS(=O)(=O)N1CCC(CC(=O)Nc2ccc3cc2CCc2cncc(c2)Nc2ncc(Cl)c(n2)N3)C1 (centres unmarked) [Example A91, N-[6-Chloro-2,4,8,18,22-pentaazatetracyclo[14.3.1.1(3,7).1(9,13)]docosa-1(20),3(22),4,6,9(21),10,12,16,18-nonaen-12-yl]-2-[1-(methylsulfonyl)pyrrolidin-3-yl]acetamide bis(trifluoroacetate)] |
| 79 | 21 | 1.4 | 6.1 | 61 | O=C(CC1CCN(C(=O)Nc2ccccc2)C1)Nc1ccc2cc1CCc1cncc(c1)Nc1ncc(Cl)c(n1)N2 (centres unmarked) [Example A92, 3-(2-{[6-Chloro-2,4,8,18,22-pentaazatetracyclo[14.3.1.1(3,7).1(9,13)]docosa-1(20),3(22),4,6,9(21),10,12,16,18-nonaen-12-yl]amino}-2-oxoethyl)-N-phenylpyrrolidine-1-carboxamide bis(trifluoroacetate)] |
| 112 | 43 | 22 | 24 | 30 | CNC(=O)N1CCC(CC(=O)Nc2ccc3cc2CCc2cncc(c2)Nc2ncc(Cl)c(n2)N3)C1 (centres unmarked) [Example A93, 3-(2-{[6-Chloro-2,4,8,18,22-pentaazatetracyclo[14.3.1.1(3,7).1(9,13)]docosa-1(20),3(22),4,6,9(21),10,12,16,18-nonaen-12-yl]amino}-2-oxoethyl)-N-methylpyrrolidine-1-carboxamide bis(trifluoroacetate)] |
| 86 | 32 | 21 | 17 | 26 | CC(=O)N1CCC(CC(=O)Nc2ccc3cc2CCc2cncc(c2)Nc2ncc(Cl)c(n2)N3)C1 (centres unmarked) [Example A94, 2-(1-Acetylpyrrolidin-3-yl)-N-[6-chloro-2,4,8,18,22-pentaazatetracyclo[14.3.1.1(3,7).1(9,13)]docosa-1(20),3(22),4,6,9(21),10,12,16,18-nonaen-12-yl]acetamide bis(trifluoroacetate)] |
| 160 | 9 | 9.1 | 23 | 18 | CN(C)C(=O)N1CCC(CC(=O)Nc2ccc3cc2CCc2cncc(c2)Nc2ncc(Cl)c(n2)N3)CC1 [Example A95, 4-(2-{[6-Chloro-2,4,8,18,22-pentaazatetracyclo[14.3.1.1(3,7).1(9,13)]docosa-1(20),3(22),4,6,9(21),10,12,16,18-nonaen-12-yl]amino}-2-oxoethyl)-N,N-dimethylpiperidine-1-carboxamide bis(trifluoroacetate)] |
| 80 | 11 | 4.5 | 6.6 | 26 | CN(C)S(=O)(=O)N1CCC(CC(=O)Nc2ccc3cc2CCc2cncc(c2)Nc2ncc(Cl)c(n2)N3)CC1 [Example A96, N-[6-Chloro-2,4,8,18,22-pentaazatetracyclo[14.3.1.1(3,7).1(9,13)]docosa-1(20),3(22),4,6,9(21),10,12,16,18-nonaen-12-yl]-2-{1-[(dimethylamino)sulfonyl]piperidin-4-yl}acetamide bis(trifluoroacetate)] |
| 34 | 11 | 3.9 | 7.5 | 31 | CC(C)S(=O)(=O)N1CCC(CC(=O)Nc2ccc3cc2CCc2cncc(c2)Nc2ncc(Cl)c(n2)N3)CC1 [Example A97, N-[6-Chloro-2,4,8,18,22-pentaazatetracyclo[14.3.1.1(3,7).1(9,13)]docosa-1(20),3(22),4,6,9(21),10,12,16,18-nonaen-12-yl]-2-[1-(isopropylsulfonyl)piperidin-4-yl]acetamide bis(trifluoroacetate)] |
